As a reminder, the IC50 is the concentration at which inhibition is half-maximal.

Here are results for 14 compounds from patent US10780090B2, “Heteroaryl compounds useful as inhibitors of SUMO activating enzyme” (Millennium Pharmaceuticals, Inc., priority 2014, dated 2020).

In the experiment the target is recombinant human SAE enzyme (Homo sapiens (Human), UniProt Q9UBT2). Nature of the experiment: SAE HTRF enzyme assay. The class given is biochemical. The conditions noted are these: for Percent Inhibition: Concentration 0.111 μM; for IC50: class symbols A/B/C. In a few lines: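 HTRF read-out using Eu-cryptate anti-Flag and allophycocyanin anti-GST antibodies, added with EDTA stop buffer and read after 2 h at 24 °C. The preceding reaction ran 105 min at 24 °C: 0.11 nM recombinant SAE, 0.5 μM ATP, Sumo-Flag, Ubc9-GST, pH 7.5. Values given as single-concentration inhibition or IC50.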
For orientation: In TR-FRET formats the signal depends on donor and acceptor labels being close together.

SMILES strings stand for the structures.

Sequence of recombinant human SAE enzyme (Q9UBT2 whole entry): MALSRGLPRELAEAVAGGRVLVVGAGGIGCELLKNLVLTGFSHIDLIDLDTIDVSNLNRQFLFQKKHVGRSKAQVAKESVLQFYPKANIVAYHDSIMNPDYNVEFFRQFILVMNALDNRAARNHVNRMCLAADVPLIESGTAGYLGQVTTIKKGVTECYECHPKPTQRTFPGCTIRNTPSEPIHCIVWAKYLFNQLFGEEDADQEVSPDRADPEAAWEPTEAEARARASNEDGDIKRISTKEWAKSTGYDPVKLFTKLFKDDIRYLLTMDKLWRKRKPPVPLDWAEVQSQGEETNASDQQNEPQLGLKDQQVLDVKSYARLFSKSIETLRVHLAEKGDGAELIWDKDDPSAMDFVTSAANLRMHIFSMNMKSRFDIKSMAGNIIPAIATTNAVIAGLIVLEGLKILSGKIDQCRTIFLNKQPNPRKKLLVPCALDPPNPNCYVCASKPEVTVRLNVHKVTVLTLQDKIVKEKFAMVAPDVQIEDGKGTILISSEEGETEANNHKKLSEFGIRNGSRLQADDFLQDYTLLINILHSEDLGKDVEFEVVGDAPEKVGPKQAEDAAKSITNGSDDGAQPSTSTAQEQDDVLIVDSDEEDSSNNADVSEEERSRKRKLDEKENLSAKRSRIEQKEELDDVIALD
Sequence of recombinant human SAE enzyme (Q9UBE0 whole entry partner): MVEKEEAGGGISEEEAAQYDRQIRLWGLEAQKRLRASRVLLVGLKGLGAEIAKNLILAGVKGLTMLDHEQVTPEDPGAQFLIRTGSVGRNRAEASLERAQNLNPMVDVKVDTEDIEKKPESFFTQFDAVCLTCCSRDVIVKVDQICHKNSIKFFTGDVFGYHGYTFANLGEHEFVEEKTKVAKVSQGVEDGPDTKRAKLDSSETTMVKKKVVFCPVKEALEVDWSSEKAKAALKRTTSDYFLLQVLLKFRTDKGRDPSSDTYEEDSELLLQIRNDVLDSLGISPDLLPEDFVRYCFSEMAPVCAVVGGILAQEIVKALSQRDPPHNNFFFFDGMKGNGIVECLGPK

For the compound `NS(=O)(=O)OC[C@H]1C[C@@H](Nc2ncncc2C(=O)c2cc(Cc3cccc(Cl)c3)c([C@@H]3CCCO3)s2)C[C@@H]1O` (single isomer, unassigned) [I-41b, [(1R,2S,4R)-4-{[5-({4-(3-chlorobenzyl)-5-[(2S)-tetrahydrofuran-2-yl]-2-thienyl}carbonyl)pyrimidin-4-yl]amino}-2-hydroxycyclopentyl]methyl sulfamate or [(1R,2S,4R)-4-{[5-({4-(3-chlorobenzyl)-5-[(2R)-tetrahydrofuran-2-yl]-2-thienyl}carbonyl)pyrimidin-4-yl]amino}-2-hydroxycyclopentyl]methyl sulfamate], the “Percent Inhibition” value is listed as 98 and the IC50 was under 10 nM.

Consider `NS(=O)(=O)OC[C@H]1C[C@@H](Nc2ncncc2C(=O)c2cc([C@H](O)c3cccc(Cl)c3)co2)C[C@@H]1O` (single isomer, unassigned) [I-42a, {(1R,2S,4R)-4-[(5-{4-[(R)-(3-chlorophenyl)(hydroxy)methyl]-2-furoyl}pyrimidin-4-yl)amino]-2-hydroxycyclopentyl}methyl sulfamate or {(1R,2S,4R)-4-[(5-{4-[(S)-(3-chlorophenyl)(hydroxy)methyl]-2-furoyl}pyrimidin-4-yl)amino]-2-hydroxycyclopentyl}methyl sulfamate], for which the “Percent Inhibition” value is 97 and the IC50 was under 10 nM.

Consider `NS(=O)(=O)OC[C@H]1C[C@@H](Nc2ncncc2C(=O)c2cc([C@H](O)c3cccc(Cl)c3)co2)C[C@@H]1O` (single isomer, unassigned) [I-42b, {(1R,2S,4R)-4-[(5-{4-[(R)-(3-chlorophenyl)(hydroxy)methyl]-2-furoyl}pyrimidin-4-yl)amino]-2-hydroxycyclopentyl}methyl sulfamate or {(1R,2S,4R)-4-[(5-{4-[(S)-(3-chlorophenyl)(hydroxy)methyl]-2-furoyl}pyrimidin-4-yl)amino]-2-hydroxycyclopentyl}methyl sulfamate], for which the “Percent Inhibition” value is given as 99 and the IC50 is under 10 nM.

Turning to `CN[C@H](c1cccc(Cl)c1)c1csc(C(=O)c2cncnc2N[C@@H]2C[C@H](COS(N)(=O)=O)[C@@H](O)C2)c1` (single isomer, unassigned) [I-47a, [(1R,2S,4R)-4-{[5-({4-[(R)-(3-chlorophenyl)(methylamino)methyl]-2-thienyl}carbonyl)pyrimidin-4-yl]amino}-2-hydroxycyclopentyl]methyl sulfamate or [(1R,2S,4R)-4-{[5-({4-[(S)-(3-chlorophenyl)(methylamino)methyl]-2-thienyl}carbonyl)pyrimidin-4-yl]amino}-2-hydroxycyclopentyl]methyl sulfamate], the “Percent Inhibition” value came to 99 and the IC50 was under 10 nM.

Regarding `CN[C@H](c1cccc(Cl)c1)c1csc(C(=O)c2cncnc2N[C@@H]2C[C@H](COS(N)(=O)=O)[C@@H](O)C2)c1` (single isomer, unassigned) [I-47b, [(1R,2S,4R)-4-{[5-({4-[(R)-(3-chlorophenyl)(methylamino)methyl]-2-thienyl}carbonyl)pyrimidin-4-yl]amino}-2-hydroxycyclopentyl]methyl sulfamate or [(1R,2S,4R)-4-{[5-({4-[(S)-(3-chlorophenyl)(methylamino)methyl]-2-thienyl}carbonyl)pyrimidin-4-yl]amino}-2-hydroxycyclopentyl]methyl sulfamate], the “Percent Inhibition” value is given as 99 and the IC50 was under 10 nM.

Take `C[C@](O)(c1ccccc1)c1coc(C(=O)c2cncnc2N[C@@H]2C[C@H](COS(N)(=O)=O)[C@@H](O)C2)c1` (single isomer, unassigned) [I-58a, {(1R,2S,4R)-2-hydroxy-4-[(5-{4-[(1S)-1-hydroxy-1-phenylethyl]-2-furoyl}pyrimidin-4-yl)amino]cyclopentyl}methyl sulfamate or {(1R,2S,4R)-2-hydroxy-4-[(5-{4-[(1R)-1-hydroxy-1-phenylethyl]-2-furoyl}pyrimidin-4-yl)amino]cyclopentyl}methyl sulfamate]: the “Percent Inhibition” value came to 87 and the IC50 was in the range of 10 to 100 nM.

`C[C@](O)(c1ccccc1)c1coc(C(=O)c2cncnc2N[C@@H]2C[C@H](COS(N)(=O)=O)[C@@H](O)C2)c1` (single isomer, unassigned) [I-58b, {(1R,2S,4R)-2-hydroxy-4-[(5-{4-[(1S)-1-hydroxy-1-phenylethyl]-2-furoyl}pyrimidin-4-yl)amino]cyclopentyl}methyl sulfamate or {(1R,2S,4R)-2-hydroxy-4-[(5-{4-[(1R)-1-hydroxy-1-phenylethyl]-2-furoyl}pyrimidin-4-yl)amino]cyclopentyl}methyl sulfamate]: the “Percent Inhibition” value came out at 100 and the IC50 is under 10 nM.

As for `CO[C@@H](c1cccc(Br)c1)c1csc(C(=O)c2cncnc2N[C@@H]2C[C@H](COS(N)(=O)=O)[C@@H](O)C2)c1` (single isomer, unassigned) [I-73a, [(1R,2S,4R)-4-{[({(4-[(S)-(3-Bromophenyl)(methoxy)methyl]-2-thienyl}carbonyl)pyrimidin-4-yl]amino}-2-hydroxycyclopentyl]methyl sulfamate or [(1R,2S,4R)-4-{[5-({4-[(R)-(3-Bromophenyl)(methoxy)methyl]-2-thienyl}carbonyl)pyrimidin-4-yl]amino}-2-hydroxycyclopentyl]methyl sulfamate], the “Percent Inhibition” value came to 98 and the IC50 was under 10 nM.

For `CO[C@@H](c1cccc(Br)c1)c1csc(C(=O)c2cncnc2N[C@@H]2C[C@H](COS(N)(=O)=O)[C@@H](O)C2)c1` (single isomer, unassigned) [I-73b, [(1R,2S,4R)-4-{[5-({4-[(S)-(3-Bromophenyl)(methoxy)methyl-2-thienyl}carbonyl)pyrimidin-4-yl]amino}-2-hydroxycyclopentyl]methyl sulfamate or [(1R,2S,4R)-4-{[5-(4-[(R)-(3-Bromophenyl)(methoxy)methyl]-2-thienyl)carbonyl)pyrimidin-4-yl]amino}-2-hydroxycyclopentyl]methyl sulfamate], the “Percent Inhibition” value is reported as 98 and the IC50 is under 10 nM.

Consider `CO[C@H](c1cccc(Cl)c1)c1cc(C(=O)c2cncnc2N[C@@H]2C[C@H](COS(N)(=O)=O)[C@@H](O)C2)sc1Cl` (single isomer, unassigned) [I-90a, [(1R,2S,4R)-4-{[5-({5-chloro-4-[(R)-(3-chlorophenyl)(methoxy)methyl]-2-thienyl}carbonyl)pyrimidin-4-yl]amino}-2-hydroxycyclopentyl]methyl sulfamate or [(1R,2S,4R)-4-{[5-({5-chloro-4-[(S)-(3-chlorophenyl)(methoxy)methyl]-2-thienyl}carbonyl)pyrimidin-4-yl]amino}-2-hydroxycyclopentyl]methyl sulfamate], for which the “Percent Inhibition” value turned out to be 98 and the IC50 was under 10 nM.

Take `CO[C@H](c1cccc(Cl)c1)c1cc(C(=O)c2cncnc2N[C@@H]2C[C@H](COS(N)(=O)=O)[C@@H](O)C2)sc1Cl` (single isomer, unassigned) [I-90b, [(1R,2S,4R)-4-{[5-({5-chloro-4-[(R)-(3-chlorophenyl)(methoxy)methyl]-2-thienyl}carbonyl)pyrimidin-4-yl]amino}-2-hydroxycyclopentyl]methyl sulfamate or [(1R,2S,4R)-4-{[5-({5-chloro-4-[(S)-(3-chlorophenyl)(methoxy)methyl]-2-thienyl}carbonyl)pyrimidin-4-yl]amino}-2-hydroxycyclopentyl]methyl sulfamate]: the “Percent Inhibition” value was 92 and the IC50 fell in the range of 10 to 100 nM.

Take `CC(O)(c1cccc(Cl)c1)c1cc(C(=O)c2cncnc2N[C@@H]2C[C@H](COS(N)(=O)=O)[C@@H](O)C2)sc1Cl` (single isomer, unassigned) [I-102a, [(1R,2S,4R)-4-{[5-({5-chloro-4-[(1R)-1-(3-chlorophenyl)-1-hydroxyethyl]-2-thienyl}carbonyl)pyrimidin-4-yl]amino}-2-hydroxycyclopentyl]methyl sulfamate or [(1R,2S,4R)-4-{[5-({5-chloro-4-[(1S)-1-(3-chlorophenyl)-1-hydroxyethyl]-2-thienyl}carbonyl)pyrimidin-4-yl]amino}-2-hydroxycyclopentyl]methyl sulfamate]: the “Percent Inhibition” value came out at 36 and the IC50 is 100 to 1000 nM.

Take `CC(O)(c1cccc(Cl)c1)c1cc(C(=O)c2cncnc2N[C@@H]2C[C@H](COS(N)(=O)=O)[C@@H](O)C2)sc1Cl` (single isomer, unassigned) [I-102b, [(1R,2S,4R)-4-{[5-({5-chloro-4-[(1R)-1-(3-chlorophenyl)-1-hydroxyethyl]-2-thienyl}carbonyl)pyrimidin-4-yl]amino}-2-hydroxycyclopentyl]methyl sulfamate or [(1R,2S,4R)-4-{[5-({5-chloro-4-[(1S)-1-(3-chlorophenyl)-1-hydroxyethyl]-2-thienyl}carbonyl)pyrimidin-4-yl]amino}-2-hydroxycyclopentyl]methyl sulfamate]: the “Percent Inhibition” value came to 97 and the IC50 was under 10 nM.

As for `CC(c1cccc(Cl)c1)c1csc(C(=O)c2cncnc2N[C@@H]2C[C@H](COS(N)(=O)=O)[C@@H](O)C2)c1` (single isomer, unassigned) [I-117a, [(1R,2S,4R)-4-{[5-({4-[(1S)-1-(3-chlorophenyl)ethyl]-2-thienyl}carbonyl)pyrimidin-4-yl]amino}-2-hydroxycyclopentyl]methyl sulfamate or [(1R,2S,4R)-4-{[5-({4-[(1R)-1-(3-chlorophenyl)ethyl]-2-thienyl}carbonyl)pyrimidin-4-yl]amino}-2-hydroxycyclopentyl]methyl sulfamate], the “Percent Inhibition” value is 73 and the IC50 is 10 to 100 nM.
